Measured values as given in article PMC9502776, “Assessment of the Effects of Chitosan, Chitooligosaccharides and Their Derivatives on Lemna minor” (Molecules, 2022).
Converted amounts (≈) assume the structure as drawn. Where a name gives a salt, the structure may show the parent alone.

What was measured:
Lemna minor = Lemna minor growth inhibition assay (OECD Test No. 221); assay type: in vivo; conditions: for aquatic toxicity category according to U.S. EPA: based on the calculated EC50 values against Lemna minor
Experimental: Four types of polymers were tested, namely low- (ChiS), medium- (ChiM) and high- (ChiL) molecular-weight chitosan and chitosan with a degree of deacetylation of approximately 50% (Chi50). The chitosan samples were tested in three concentrations (50 mg/L, 500 mg/L and 5000 mg/L) and were obtained by dissolving the polymers in 0.3% acetic acid, followed by dilution with culture medium in a 1:2 ratio.
Four types of chitooligosaccharides were tested: D-glucosamine hydrochloride (G), N-acetyl-D-glucosamine (NAG or A), chitobiose dihydrochloride (2G), and carboxymethyl chitosan (CMChi). Three chitooligosaccharides (G, NAG, 2G) were tested in three concentrations: 5 mg/L, 50 mg/L and 250 mg/L, being dissolved directly into L. minor culture medium. CMChi was tested in four concentrations (50 mg/L, 250 mg/L, 500 mg/L and 5000 mg/L) and the solutions were prepared by dissolving the polymer directly in L. minor culture medium.
Lemna minor, the common duckweed, was used as a test organism for the assessment of growth response of the tested chitosan samples and chitooligosaccharides through a growth inhibition assay. Standard conditions as described in OECD guideline were maintained during both L. minor culture and growth inhibition assay.
The effects of the chitosan samples and the chitooligosaccharides were tested using a number of 10 fronds per test vessel, with an exposure period of 7 days. In the same conditions, two controls were tested: a negative control (C−), represented by culture medium, and a positive control (C+), represented by 0.5% zinc chloride. All samples and controls were tested in triplicate.
The endpoints of the growth inhibition test were represented by number of fronds, which was used for the plotting of dose–response curves and the calculation of half maximal effective concentration (EC50). The tested samples were classified into aquatic ecotoxicity categories according to U.S. EPA [47] based on the calculated EC50 values: very highly toxic (<0.1 mg/L), highly toxic (>0.1–1 mg/L), moderately toxic (>1–10 mg/L), slightly toxic (>10–100 mg/L) and practically non-toxic (>100 mg/L).
PAST software was used for the statistical analysis of data, with Quest Graph™ EC50 Calculator [65] being used for the calculation of EC50 values. The Shapiro–Wilk W test was used for assessing the normality of the data, with the distribution analysis being followed by an ANOVA analysis. The normally distributed data were analyzed with parametric tests, the homogeneity of variance among treatments was determined through Levene’s test, with Tuckey’s post hoc test being used for the analysis of variances. The non-normally distributed data were analyzed with the Kruskal–Wallis test, variances being further analyzed using Dunn’s post hoc test. The Pearson linear r correlation test was used for all correlation analysis. The differences were considered significant for p values < 0.05.

Lemna gibba = system: Lemna gibba; parameters: method as in PMID 16666961; conditions: D-glucosamine 50 mM, ref [49]; cited from earlier work
Lemna trisulca = system: Lemna trisulca; parameters: method as in PMID 17074410; conditions: ref [48], cited from earlier work
[1] = number of fronds, exposure period of 7 days

Cl.N[C@H]1[C@H](O[C@H]2[C@H](O)[C@@H](N)C(O)O[C@@H]2CO)O[C@H](CO)[C@@H](O)[C@@H]1O (some centres unmarked) [2G, chitobiose dihydrochloride]
EC50 against Lemna minor (Lemna minor; [1]): 266.36 µg/mL

CC(=O)N[C@@H]1[C@@H](O)[C@H](O)[C@@H](CO)O[C@@H]1O [A, N-acetyl-D-glucosamine]
aquatic toxicity category according to U.S. EPA (Lemna minor): practically non-toxic (practically non-toxic (>100 mg/L))
EC50 against Lemna minor (Lemna minor; [1]): 678.22 µg/mL (≈ 3.07 mM)

N[C@H]1C(O)O[C@H](CO)[C@@H](O)[C@@H]1O (stereo partly drawn) [D, D-glucosamine]
inhibition of the respiration rate (Lemna gibba): 30%
level of zeaxanthin and antheraxanthin, times higher than the control (Lemna trisulca; Lemna trisulca): approximately 30 times
inhibition of violaxanthin synthesis from zeaxanthin and antheraxanthin (Lemna trisulca; even at a concentration of 0.01%): induced the inhibition

N[C@H]1C(O)O[C@H](CO)[C@@H](O)[C@@H]1O (stereo partly drawn) [G, D-glucosamine hydrochloride]
EC50 (Lemna minor; Lemna minor, 168 h, number of fronds, exposure period of 7 days, read-out: EC50 against Lemna minor): 11.6 µg/mL
aquatic toxicity category according to U.S. EPA (Lemna minor): slightly toxic (slightly toxic (>10–100 mg/L))
